Entries after “also recorded” stand apart in the source; their conditions may differ.
Molecular target: T1, human RORγ hybrids of both isoforms 1 and 2 (Homo sapiens, UniProt P51449)
T1 sequence (P51449 259-518): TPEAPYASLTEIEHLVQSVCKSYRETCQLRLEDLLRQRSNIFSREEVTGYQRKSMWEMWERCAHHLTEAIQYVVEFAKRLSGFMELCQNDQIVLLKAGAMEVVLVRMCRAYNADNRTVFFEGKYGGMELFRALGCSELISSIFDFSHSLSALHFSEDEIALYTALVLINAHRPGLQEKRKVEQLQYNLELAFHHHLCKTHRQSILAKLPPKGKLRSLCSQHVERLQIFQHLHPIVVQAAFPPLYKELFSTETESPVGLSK
Assay: Human RAR-related Orphan Receptor Gamma Reporter Assay System
Type: cell-based
Details: not given
With `CC1(c2cccc([N+](=O)[O-])c2)Nc2ccccc2C(=O)N1N=Cc1cc(Br)cc(Br)c1O` (stereo not drawn) [Compound 34] the IC50 was 10 µM.

Same assay, conditions: result in words
In the case of `Cc1cc(C=C2C(=O)NC(=S)N(c3cccc(Br)c3)C2=O)c(C)n1-c1ccc(S(N)(=O)=O)cc1` [Compound 2], the “RORγt activity in experimental testing (active / inactive)” value (shortened to “RORγt activity … (active / inactive)”) is reported as “active”.
For `Cc1ccccc1-c1cc(C(=O)N2CCN(c3cccc(C(F)(F)F)c3)CC2)c2ccccc2n1` [Compound 12], the “RORγt activity … (active / inactive)” value was “less active”.
In the case of `Cc1ccc(-c2cc(C(=O)N3CCN(c4cccc(C(F)(F)F)c4)CC3)c3ccccc3n2)o1` [Compound 13], the “RORγt activity … (active / inactive)” value is reported as “less active”.
In the case of `Cc1ccccc1-c1cc(C(=O)N2CCN(c3ccc([N+](=O)[O-])cc3)CC2)c2ccccc2n1` [Compound 16], the “RORγt activity … (active / inactive)” value is reported as “either insoluble or inactive”.
In the case of `Cc1ccc(-c2cc(C(=O)N3CCN(c4ccc(F)cc4)CC3)c3ccccc3n2)cc1` [Compound 17], the “RORγt activity … (active / inactive)” value is reported as “either insoluble or inactive; also recorded: inactivity”.
For `O=C(COC(=O)c1cccc(N2C(=O)C3C4c5ccccc5C(c5ccccc54)C3C2=O)c1)c1ccccc1` (stereo not drawn) [Compound 18], the “RORγt activity … (active / inactive)” value was “activity”.
For `O=C(COC(=O)c1cccc(N2C(=O)C3C4c5ccccc5C(c5ccccc54)C3C2=O)c1)c1ccc(Cl)cc1` (stereo not drawn) [Compound 19], the “RORγt activity … (active / inactive)” value was “activity”.
With `O=C(Oc1ccc(N2C(=O)C3C4c5ccccc5C(c5ccccc54)C3C2=O)cc1)c1cccc([N+](=O)[O-])c1` (stereo not drawn) [Compound 20] the “RORγt activity … (active / inactive)” value was “inactive”.
For `O=C(O)c1ccc(NC(=O)c2cccc(N3C(=O)C4C5c6ccccc6C(c6ccccc65)C4C3=O)c2)cc1` (stereo not drawn) [Compound 21], the “RORγt activity … (active / inactive)” value was “inactive”.
For `CC1(c2cccc([N+](=O)[O-])c2)Nc2ccccc2C(=O)N1N=Cc1cc(Br)cc(Br)c1O` (stereo not drawn) [Compound 34], the “RORγt activity … (active / inactive)” value was “not a particularly potent inverse agonist”.

Tested on: not given
Assay: not given
Details: listed 15.11.2017 in the ChEMBL; cited from earlier work
In the case of `CC(C)CN(Cc1ccc(F)cc1)S(=O)(=O)c1ccc(NC2CCN(S(C)(=O)=O)CC2)nc1` [Compound 3QQ, N-(4-fluorobenzyl)-N-(2-methylpropyl)-6-{[1-(methylsulfonyl)piperidin-4-yl]amino}pyridine-3-sulfonamide], the “log P” value is listed as 2.3.

Reference: publication PMC6044741 (ACS Omega, 2018)
